Values of other authors, collected in patent publication US5672605A, “Macrolide immunomodulators” (Abbott Laboratories, priority 1995, dated 1997).

Tests used:
Candida albicans = conditions: particularly against Candida albicans, both in vitro and in vivo
[1] = rapamycin alone or in combination with picibanil
[2] = system: experimental allergic encephalomyelitis model, a model for multiple sclerosis; conditions: in vivo
[3] = system: adjuvant arthritis model, a model for rheumatoid arthritis; conditions: in vivo

SMILES | binding to FKBP-12, in words (FKBP-12) | antifungal activity, in words (Candida albicans) | antitumor activity, in words [1] | immunosuppressant effect in experimental allergic encephalomyelitis model [2] | immunosuppressant effect in adjuvant arthritis model [3] | inhibition of the formation of IgE-like antibodies (IgE-like antibodies)
C=CC[C@@H]1/C=C(\C)C[C@H](C)C[C@H](OC)[C@H]2O[C@@](O)(C(=O)C(=O)N3CCCC[C@H]3C(=O)O[C@H](/C(C)=C/[C@@H]3CC[C@@H](O)[C@H](OC)C3)[C@H](C)[C@@H](O)CC1=O)[C@H](C)C[C@@H]2OC [FK-506] | binds to FKBP-12 |  |  |  |  | 
CO[C@H]1C[C@@H]2CC[C@@H](C)[C@@](O)(O2)C(=O)C(=O)N2CCCC[C@H]2C(=O)O[C@H]([C@H](C)C[C@@H]2CC[C@@H](O)[C@H](OC)C2)CC(=O)[C@H](C)/C=C(\C)[C@@H](O)[C@@H](OC)C(=O)[C@H](C)C[C@H](C)/C=C/C=C/C=C/1C [rapamycin] | binds to FKBP-12 | antifungal activity | antitumor activity | effective as an immunosuppressant | effective as an immunosuppressant | effectively inhibit the formation of IgE-like antibodies
